Data as given in patent publication US12391679B2, “Benzamide-substituted bicyclic imidazo- and pyrazolo-fused -pyridine, -pyrimide, and -pyridazine compounds for treatment of inflammatory diseases” (ONCO3R Therapeutics BV, priority 2019, dated 2025).

Assays:
SIK3 = molecular target: T1, SIK3 (Homo sapiens, UniProt Q9Y2K2); test: ADP-Glo kinase assay, SIK3; format: biochemical
T1 construct: purchased SignalChem S12-11G-100
Outline: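 Luminescent ADP-Glo readout of ADP formed. Enzyme-substrate mix with ATP, reaction 120 min at RT, then 40 min ATP depletion and 30 min detection. Controls were 1% DMSO (negative) and 10 μM staurosporine (positive), both final.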

[1] = test system: LPS-induced TNFα in monocyte-derived macrophages; test: MdM assay: LPS-triggered TNFα (ELISA); format: cell-based, human; settings: Macrophage; human MdM; LPS 200 ng/mL; supernatant after 20 h; inhibition of TNFα; read-out: TNFα EC50
Outline: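 TNFα secretion quantified by streptavidin-HRP/luminol sandwich ELISA in supernatants collected 20 h after LPS (200 ng/mL). Macrophages derived from magnetically isolated human CD14+ monocytes were used at day 10, with compound added 1 h before LPS; final DMSO 0.2%.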

T1 sequence (Q9Y2K2 59-365 limits assumed): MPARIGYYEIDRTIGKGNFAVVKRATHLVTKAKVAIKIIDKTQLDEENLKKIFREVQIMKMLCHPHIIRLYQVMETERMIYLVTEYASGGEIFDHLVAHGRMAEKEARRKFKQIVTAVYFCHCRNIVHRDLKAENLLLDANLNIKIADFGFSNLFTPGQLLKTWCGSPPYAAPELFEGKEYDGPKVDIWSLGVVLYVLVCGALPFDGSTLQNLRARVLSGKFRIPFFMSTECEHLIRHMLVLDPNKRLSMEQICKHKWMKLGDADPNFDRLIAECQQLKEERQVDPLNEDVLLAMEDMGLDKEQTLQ

IC50 (SIK3)	EC50 [1]	SMILES
0.01 to 10 nM	100 to 1000 nM	COc1cc(-c2cnc3cc(C4CCOCC4)c(F)cn23)cc(OC(F)F)c1C(=O)NC1CC1 [Cpd 166, N-cyclopropyl-2-(difluoromethoxy)-4-(6-fluoro-7-tetrahydropyran-4-yl-imidazo[1,2-a]pyridin-3-yl)-6-methoxy-benzamide]
0.01 to 10 nM	100 to 1000 nM	COc1cc(-c2cnc3cc(C4CCC4)c(F)cn23)cc(OC(F)F)c1C(=O)NC1CC1 [Cpd 168, 4-(7-cyclobutyl-6-fluoro-imidazo[1,2-a]pyridin-3-yl)-N-cyclopropyl-2-(difluoromethoxy)-6-methoxy-benzamide]
10 to 100 nM	1000 to 5000 nM	COc1cc(-c2cnc3cc(C4(O)CCOCC4)ccn23)cc(OC(F)F)c1C(=O)NC1CC1 [Cpd 170, N-cyclopropyl-2-(difluoromethoxy)-4-[7-(4-hydroxytetrahydropyran-4-yl)imidazo[1,2-a]pyridin-3-yl]-6-methoxy-benzamide]
10 to 100 nM	1000 to 5000 nM	COc1cc(-c2cnc3cc(C4CCCN4C)ccn23)cc(OC(F)F)c1C(=O)NC1CC1 (stereo not shown) [Cpd 171, N-cyclopropyl-2-(difluoromethoxy)-6-methoxy-4-[7-(1-methylpyrrolidin-2-yl)imidazo[1,2-a]pyridin-3-yl]benzamide]
10 to 100 nM	100 to 1000 nM	COc1cc(-c2cnc3cc(C(C)(C)C(C)O)ccn23)cc(OC(F)F)c1C(=O)NC1CC1 (stereo not shown) [Cpd 172, N-cyclopropyl-2-(difluoromethoxy)-4-[7-(2-hydroxy-1,1-dimethyl-propyl)imidazo[1,2-a]pyridin-3-yl]-6-methoxy-benzamide]
10 to 100 nM	100 to 1000 nM	COc1cc(-c2cnc3cc(C4(O)CCC4)ccn23)cc(OC(F)F)c1C(=O)NC1CC1 [Cpd 173, N-cyclopropyl-2-(difluoromethoxy)-4-[7-(1-hydroxycyclobutyl)imidazo[1,2-a]pyridin-3-yl]-6-methoxy-benzamide]
10 to 100 nM	1000 to 5000 nM	COc1cc(-c2cnc3cc(C(O)CC#N)ccn23)cc(OC(F)F)c1C(=O)NC1CC1 (stereo not shown) [Cpd 175, 4-[7-(2-cyano-1-hydroxy-ethyl)imidazo[1,2-a]pyridin-3-yl]-N-cyclopropyl-2-(difluoromethoxy)-6-methoxy-benzamide]
10 to 100 nM	1000 to 5000 nM	COc1cc(-c2cnc3cc(C(C)(C#N)CO)ccn23)cc(OC(F)F)c1C(=O)NC1CC1 (stereo not shown) [Cpd 176, 4-[7-(1-cyano-2-hydroxy-1-methyl-ethyl)imidazo[1,2-a]pyridin-3-yl]-N-cyclopropyl-2-(difluoromethoxy)-6-methoxy-benzamide]
10 to 100 nM	1000 to 5000 nM	COc1cc(-c2cnc3cc(C4COCCN4C)ccn23)cc(OC(F)F)c1C(=O)NC1CC1 (stereo not shown) [Cpd 193, N-cyclopropyl-2-(difluoromethoxy)-6-methoxy-4-[7-(4-methylmorpholin-3-yl)imidazo[1,2-a]pyridin-3-yl]benzamide]
10 to 100 nM	100 to 1000 nM	COCC(C)(C#N)c1ccn2c(-c3cc(OC)c(C(=O)NC4CC4)c(OC(F)F)c3)cnc2c1 (stereo not shown) [Cpd 195, 4-[7-(1-cyano-2-methoxy-1-methyl-ethyl)imidazo[1,2-a]pyridin-3-yl]-N-cyclopropyl-2-(difluoromethoxy)-6-methoxy-benzamide]
0.01 to 10 nM	100 to 1000 nM	COc1cc(-c2cnc3cc(C4(O)CCC4)ccn23)cc(OC(F)F)c1C(=O)N[C@@H]1C[C@@H]1F [Cpd 205, 2-(difluoromethoxy)-N-[(1R,2S)-2-fluorocyclopropyl]-4-[7-(1-hydroxycyclobutyl)imidazo[1,2-a]pyridin-3-yl]-6-methoxy-benzamide]
0.01 to 10 nM	100 to 1000 nM	COc1cc(-c2cnc3cc(C4COC4)ccn23)cc(OC(F)F)c1C(=O)N[C@@H]1C[C@@H]1F [Cpd 206, 2-(difluoromethoxy)-N-[(1R,2S)-2-fluorocyclopropyl]-6-methoxy-4-[7-(oxetan-3-yl)imidazo[1,2-a]pyridin-3-yl]benzamide]
0.01 to 10 nM	100 to 1000 nM	COc1cc(-c2cnc3cc(C4(F)COC4)ccn23)cc(OC(F)F)c1C(=O)NC1CC1 [Cpd 207, N-cyclopropyl-2-(difluoromethoxy)-4-[7-(3-fluorooxetan-3-yl)imidazo[1,2-a]pyridin-3-yl]-6-methoxy-benzamide]
10 to 100 nM	100 to 1000 nM	COc1cc(-c2cnn3cc(C(C)(C)C#N)ccc23)cc(OC(F)F)c1C(=O)NC1CC1 [Cpd 208, 4-[6-(1-cyano-1-methyl-ethyl)pyrazolo[1,5-a]pyridin-3-yl]-N-cyclopropyl-2-(difluoromethoxy)-6-methoxy-benzamide]
0.01 to 10 nM	100 to 1000 nM	COc1cc(-c2cnc3cc(C(C)(C)O)ccn23)cc(OC(F)F)c1C(=O)N[C@@H]1C[C@@H]1F [Cpd 211, 2-(difluoromethoxy)-N-[(1R,2S)-2-fluorocyclopropyl]-4-[7-(1-hydroxy-1-methyl-ethyl)imidazo[1,2-a]pyridin-3-yl]-6-methoxy-benzamide]
10 to 100 nM	100 to 1000 nM	COc1cc(-c2cnn3cc(C4COC4)ccc23)cc(OC(F)F)c1C(=O)NC1CC1 [Cpd 216, N-cyclopropyl-2-(difluoromethoxy)-6-methoxy-4-[6-(oxetan-3-yl)pyrazolo[1,5-a]pyridin-3-yl]benzamide]
0.01 to 10 nM	100 to 1000 nM	COc1cc(-c2cnn3cc(C4COC4)ccc23)cc(OC(F)F)c1C(=O)N[C@@H]1C[C@@H]1F [Cpd 218, 2-(difluoromethoxy)-N-[(1R,2S)-2-fluorocyclopropyl]-6-methoxy-4-[6-(oxetan-3-yl)pyrazolo[1,5-a]pyridin-3-yl]benzamide]
0.01 to 10 nM	100 to 1000 nM	COc1cc(-c2cnc3cc(C4(F)COC4)ccn23)cc(OC(F)F)c1C(=O)N[C@@H]1C[C@@H]1F [Cpd 224, 2-(difluoromethoxy)-N-[(1R,2S)-2-fluorocyclopropyl]-4-[7-(3-fluorooxetan-3-yl)imidazo[1,2-a]pyridin-3-yl]-6-methoxy-benzamide]
0.01 to 10 nM	100 to 1000 nM	COc1cc(-c2cnn3cc(C(C)(C)O)ccc23)cc(OC(F)F)c1C(=O)N[C@@H]1C[C@@H]1F [Cpd 227, 2-(difluoromethoxy)-N-[(1R,2S)-2-fluorocyclopropyl]-4-[6-(1-hydroxy-1-methyl-ethyl)pyrazolo[1,5-a]pyridin-3-yl]-6-methoxy-benzamide]
0.01 to 10 nM	100 to 1000 nM	COc1cc(-c2cnc3cc(C(C)(C)C#N)cnn23)cc(OC(F)F)c1C(=O)N[C@@H]1C[C@@H]1F [Cpd 228, 4-[7-(1-cyano-1-methyl-ethyl)imidazo[1,2-b]pyridazin-3-yl]-2-(difluoromethoxy)-N-[(1R,2S)-2-fluorocyclopropyl]-6-methoxy-benzamide]
0.01 to 10 nM	100 to 1000 nM	COc1cc(-c2cnn3cc(C(C)(C)C#N)cnc23)cc(OC(F)F)c1C(=O)N[C@@H]1C[C@@H]1F [Cpd 231, 4-[6-(1-cyano-1-methyl-ethyl)pyrazolo[1,5-a]pyrimidin-3-yl]-2-(difluoromethoxy)-N-[(1R,2S)-2-fluorocyclopropyl]-6-methoxy-benzamide]
0.01 to 10 nM	100 to 1000 nM	COc1cc(-c2cnn3cc(C4COCCO4)ccc23)cc(OC(F)F)c1C(=O)NC1CC1 (stereo not shown) [Cpd 232, N-cyclopropyl-2-(difluoromethoxy)-4-[6-(1,4-dioxan-2-yl)pyrazolo[1,5-a]pyridin-3-yl]-6-methoxy-benzamide]
0.01 to 10 nM	100 to 1000 nM	COc1cc(-c2cnn3cc(C4(C#N)CC4)ccc23)cc(OC(F)F)c1C(=O)N[C@@H]1C[C@@H]1F [Cpd 235, 4-[6-(1-cyanocyclopropyl)pyrazolo[1,5-a]pyridin-3-yl]-2-(difluoromethoxy)-N-[(1R,2S)-2-fluorocyclopropyl]-6-methoxy-benzamide]
10 to 100 nM	100 to 1000 nM	COc1cc(-c2cnn3cc(C(C)(C)CO)ccc23)cc(OC(F)F)c1C(=O)NC1CC1 [Cpd 236, N-cyclopropyl-2-(difluoromethoxy)-4-[6-(2-hydroxy-1,1-dimethyl-ethyl)pyrazolo[1,5-a]pyridin-3-yl]-6-methoxy-benzamide]
0.01 to 10 nM	1000 to 5000 nM	COc1cc(-c2cnn3cc(C4(C#N)CCOCC4)ccc23)cc(OC(F)F)c1C(=O)NC1CC1 [Cpd 237, 4-[6-(4-cyanotetrahydropyran-4-yl)pyrazolo[1,5-a]pyridin-3-yl]-N-cyclopropyl-2-(difluoromethoxy)-6-methoxy-benzamide]
0.01 to 10 nM	100 to 1000 nM	COc1cc(-c2cnn3cc(C(C)(C)CO)ccc23)cc(OC(F)F)c1C(=O)N[C@@H]1C[C@@H]1F [Cpd 242, 2-(difluoromethoxy)-N-[(1R,2S)-2-fluorocyclopropyl]-4-[6-(2-hydroxy-1,1-dimethyl-ethyl)pyrazolo[1,5-a]pyridin-3-yl]-6-methoxy-benzamide]
0.01 to 10 nM	100 to 1000 nM	COc1cc(-c2cnn3cc(C4(C#N)CCOCC4)ccc23)cc(OC(F)F)c1C(=O)N[C@@H]1C[C@@H]1F [Cpd 243, 4-[6-(4-cyanotetrahydropyran-4-yl)pyrazolo[1,5-a]pyridin-3-yl]-2-(difluoromethoxy)-N-[(1R,2S)-2-fluorocyclopropyl]-6-methoxy-benzamide]
10 to 100 nM	100 to 1000 nM	COc1cc(-c2cnn3cc(C(C)(C)C#N)ccc23)cc(OC)c1C(=O)N[C@@H]1C[C@@H]1F [Cpd 245, 4-[6-(1-cyano-1-methyl-ethyl)pyrazolo[1,5-a]pyridin-3-yl]-N-[(1R,2S)-2-fluorocyclopropyl]-2,6-dimethoxy-benzamide]

SMILES	IC50 (SIK3)	EC50 [1]
COc1cc(-c2cnc3cc(C4COC4)ccn23)cc(OC(F)F)c1C(=O)NC1CC1 [Cpd 174, N-cyclopropyl-2-(difluoromethoxy)-6-methoxy-4-[7-(oxetan-3-yl)imidazo[1,2-a]pyridin-3-yl]benzamide]	0.01 to 10 nM	100 to 1000 nM
